In patent US11834698B2, “Process for determining enzyme activity in a cell by activity-based reporter gene technology (ABRGT)” (INDIAN INSTITUTE OF SCIENCE EDUCATION AND RESEARCH, priority 2018, dated 2023):
Peptide text beside a SMILES is read from it. * marks the point of attachment. Cbz = O=C(OCc1ccccc1)*; CH2F = FC*

Experiments:
caspase-9 GFPspark [1] = target: T1, caspase-9 GFPspark (Homo sapiens, UniProt P55211); assay: AbRGT FRET imaging / acceptor photobleaching, caspase-9 GFPspark in HEK-293 cells; format: cell-based
T1 construct: host or cells: MCF-7, HEK-293
T1 sequence (P55211 1-416): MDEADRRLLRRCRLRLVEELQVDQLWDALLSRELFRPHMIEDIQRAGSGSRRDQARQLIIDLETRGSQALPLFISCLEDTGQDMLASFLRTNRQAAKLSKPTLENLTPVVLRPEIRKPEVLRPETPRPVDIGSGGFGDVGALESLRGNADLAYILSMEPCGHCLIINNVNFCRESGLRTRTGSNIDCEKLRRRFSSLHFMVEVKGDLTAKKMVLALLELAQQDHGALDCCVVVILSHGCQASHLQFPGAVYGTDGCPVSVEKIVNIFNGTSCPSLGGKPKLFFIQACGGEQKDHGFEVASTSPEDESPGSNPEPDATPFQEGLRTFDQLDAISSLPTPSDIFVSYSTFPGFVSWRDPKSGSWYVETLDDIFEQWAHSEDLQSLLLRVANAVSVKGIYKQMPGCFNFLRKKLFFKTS
Description: FIGS. 17A and 17B depict specific detection of caspase-9 GFPspark in HEK-293 cells. Casp-9 GFPspark (1 μg) transfected HEK-293 cells were treated with STS (1 μM) for 4 h and labelled with the probe 1 (1 μM) for 2 h. […] The acceptor photobleaching was performed to confirm the FRET signal as described previously. The bar graph representing the rise in GFP intensity in ROI after rhodamine photobleaching was 75 a.u. as compared to the unbleached background, i.e., 10 a.u. FRET efficiency was calculated to be 35±2%.
Plasmids and transient transfection: GFPspark tagged plasmids; caspase-3 GFPspark tag (Cat: HG10050-ACG), caspase-7 GFPspark tag (HG10049-ACG), caspase-8 GFPspark (HG10078-ACG), caspase-9 GFPspark (HG11151-ACG) and cathepsin B GFPspark (HG10483-ACG) were procured from Sino Biological. For transfection, cells were seeded in a 6-well plate at a density of 0.4 million cells/well. […] 24 h post-transfection, cells were visualized under the GFP filter for GFPspark expression under fluorescence microscope at 10× magnification.
(§1) Labelling of active caspases in apoptotic cells with FABP: After 24 h of transfection, cells were treated with STS (1 μM) drug or TRAIL (1 μg/ml) for apoptotic induction and incubated for 2, 4, 6 and 8 h at 37° C. in a humidified atmosphere of 5% CO2/95% air. […] Slides were then imaged for GFP, FRET and rhodamine fluorescence signals under confocal microscopy. […]
Fluorescence imaging studies, FRET procedure: Images were collected on Zeiss LSM710 confocal microscope with 25 mW argon laser using Zen10 software. […] Images were collected in the three channels; GFP channel, argon laser tuned at 488 nm with 2% laser intensity and fluorescence emission was collected in emission range of 490-550 nm; rhodamine channel, argon laser tuned to 561 nm laser with 2% laser intensity and fluorescence emission was collected in range 550-650 nm and FRET channel with excitation laser of GFPSPARK channel and emission range of rhodamine channel. […]

caspase-9 GFPspark [2] = target: T1, caspase-9 GFPspark; assay: AbRGT FRET imaging / acceptor photobleaching, caspase-9 GFPspark in MCF-7 cells; format: cell-based
Description: FIG. 15 depicts confocal images of MCF-7 cells in GFP, FRET and Rh channel Caspase-7 GFPspark transfected MCF-7 cells were treated with STS (1 μM) for 6 h and labelled (a) (i) with probe 1 (1 μM) probe. Cells were pre-treated with (a) (ii) Z-VAD-FMK (50 μM) or (a) (iii) Q-VD-OPh (50 μM) pan-caspase inhibitors 1 h before the probe labelling. Caspase-9 GFPspark transfected MCF-7 cells were treated with STS (1 μM) for 4 h and labelled (b) (i) with probe 1 (1 μM) probe. Cells were pre-treated with (b) (ii) Z-VAD-FMK (50 μM) 1 h before probe labelling. Caspase-8 GFPspark overexpressing HEK-293 cells were treated with TRAIL (1 μg/ml) for 5 h and labelled (c) (i) with the probe 1. Cells were pre-treated with (c) (ii) Z-VAD-FMK (50 μM) 1 h before probe labelling.
FIG. 16 depicts specific detection of caspase-9 GFPspark in MCF-7 cells. Casp-9 GFPspark (1 μg) transfected MCF-7 cells were treated with STS (1 μM) for 4 h and labelled with the probe 1 (1 μM). Cells were fixed and the fluorescence signal was collected in GFP, FRET and Rh channels. The acceptor photobleaching experiment was carried out to confirm the FRET signal as described previously. Bar graph representing a rise in GFP intensity in ROI after rhodamine photobleaching was 63 a.u. as compared to the unbleached background, i.e., 8 a.u. FRET efficiency was calculated to be 30±1%.
Plasmids and transient transfection: GFPspark tagged plasmids; caspase-3 GFPspark tag (Cat: HG10050-ACG), caspase-7 GFPspark tag (HG10049-ACG), caspase-8 GFPspark (HG10078-ACG), caspase-9 GFPspark (HG11151-ACG) and cathepsin B GFPspark (HG10483-ACG) were procured from Sino Biological. For transfection, cells were seeded in a 6-well plate at a density of 0.4 million cells/well. At 60-70% confluency, cells were transiently transfected for 24 h at 37° C. with 1 μg of the GFPspark tagged plasmid DNA construct mixed with 5 μL of Lipofectamine 2000 (Invitrogen) according to the manufacturer's instructions. 24 h post-transfection, cells were visualized under the GFP filter for GFPspark expression under fluorescence microscope at 10× magnification.
as §1, with “air. Cells were gently scraped off from the surface at the end of apoptotic induction and centrifuged at 3000 rpm for 5 min.” for “air.”
Fluorescence imaging studies, FRET procedure: Images were collected on Zeiss LSM710 confocal microscope with 25 mW argon laser using Zen10 software. […]

[3] = MCF-7, inhibitor 50 μM, STS 4 h
[4] = HEK-293, STS 1 μM 4 h, probe 1 μM 2 h
[5] = MCF-7, STS 1 μM 4 h, probe 1 μM

Row | Compound | effect of inhibitor on FRET signal (caspase-9 GFPspark [1]; HEK-293, inhibitor 50 μM pre-treatment, STS 4 h) | effect of inhibitor on signal in FRET channel (caspase-9 GFPspark [2]; [3]) | effect of inhibitor on signal in Rh channel (caspase-9 GFPspark [2]; [3]) | calculated FRET efficiency (caspase-9 GFPspark [1]; [4]) | rise in GFP intensity in ROI after rhodamine photobleaching (caspase-9 GFPspark [1]; [4]) | calculated FRET efficiency (caspase-9 GFPspark [2]; [5]) | rise in GFP intensity in ROI after rhodamine photobleaching (caspase-9 GFPspark [2]; [5])
1 | COC(=O)C[C@H](NC(=O)[C@H](C)NC(=O)[C@@H](NC(=O)OCc1ccccc1)C(C)C)C(=O)CF [Z-VAD-FMK] (Cbz-Val-Ala-Asp(OMe)-CH2F) | abolished | completely abolished | completely abolished |  |  |  | 
2 | Rhodamine-VAD-fluoromethyl ketone [probe 1] |  |  |  | 35±2% | 75 a.u. | 30±1% | 63 a.u.
